From patent US9657015B2, “Substituted bicyclic dihydropyrimidinones and their use as inhibitors of neutrophil elastase activity” (Boehringer Ingelheim International GmbH, priority 2014, dated 2017)

Key:
[1] = target: Human neutrophil elastase (Homo sapiens (Human), UniProt P08246); test: Human Neutrophil Elastase Assay; format: biochemical; conditions: substrate MeOSuc-Ala-Ala-Pro-Val-AMC 250 μM, pH 7.5, room temperature
[2] = target: neutrophil elastase in human plasma (Homo sapiens (Human), UniProt P08246); test: Neutrophil elastase inhibitory activity in human plasma; format: biochemical; conditions: human plasma assay (zymosan-stimulated blood plasma), substrate 250 μM, pH 7.5
Sequence of neutrophil elastase in human plasma (P08246 30-247): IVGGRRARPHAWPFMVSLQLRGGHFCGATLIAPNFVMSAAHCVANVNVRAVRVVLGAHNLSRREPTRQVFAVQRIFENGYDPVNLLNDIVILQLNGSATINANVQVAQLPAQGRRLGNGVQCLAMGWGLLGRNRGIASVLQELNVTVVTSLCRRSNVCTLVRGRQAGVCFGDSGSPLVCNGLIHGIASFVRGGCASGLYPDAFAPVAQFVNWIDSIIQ
Protocol: Assay for the Determination of Neutrophil Elastase Inhibitory Activity in Human Plasma
Citrated blood from human healthy donors is mixed with zymosan suspension and incubated at room temperature. This leads to the stimulation of neutrophils and the release of neutrophil elastase into the plasma. The stimulated blood is centrifuged to generate the neutrophil elastase enriched plasma.
Preparation of Zymosan Working Solution:
Various concentrations of the neutrophil elastase inhibitor are incubated with plasma. […] A dose response curve is generated to calculate the EC50 of the inhibitor.

Sequence of Human neutrophil elastase (P08246 30-247): as above

SMILES | IC50 [1] [nM] | IC50 [2] [nM]
N#Cc1ccc(C2NC(=O)N(c3cccc(C(F)(F)F)c3)C3=C2C(=O)NCC3)cc1 (racemic) [Example 1, 4-(2,5-Dioxo-1-(3-(trifluoromethyl)phenyl)-1,2,3,4,5,6,7,8-octahydropyrido[4,3-d]-pyrimidin-4-yl)benzonitrile] | 5.7 | 11
N#Cc1ccc(C2NC(=O)N(c3cccc(C(F)F)c3)C3=C2C(=O)NCC3)cc1 (racemic) [Example 2, 4-(1-(3-(Difluoromethyl)phenyl)-2,5-dioxo-1,2,3,4,5,6,7,8-octahydropyrido[4,3-d]-pyrimidin-4-yl)benzonitrile] | 6.9 | 8.2
CN1CCC2=C(C1=O)C(c1ccc(C#N)cc1)NC(=O)N2c1cccc(C(F)(F)F)c1 (racemic) [Example 4, 4-(6-Methyl-2,5-dioxo-1-(3-(trifluoromethyl)phenyl)-1,2,3,4,5,6,7,8-octahydropyrido[4,3-d]pyrimidin-4-yl)benzonitrile] | 5.8 | 2.9
CNC(=O)CN1C(=O)N(c2cccc(C(F)(F)F)c2)C2=C(C(=O)NCC2)C1c1ccc(C#N)cc1 (racemic) [Example 12, 2-(4-(4-Cyanophenyl)-2,5-dioxo-1-(3-(trifluoromethyl)phenyl)-1,2,5,6,7,8-hexahydropyrido[4,3-d]pyrimidin-3(4H)-yl)-N-methylacetamide] | 2 | 2.8
CN1C(=O)N(c2cccc(C(F)(F)F)c2)C2=C(C(=O)NCC2)C1c1ccc(C#N)cc1-c1cnco1 (racemic) [Example 25, 4-{3-Methyl-2,5-dioxo-1-[3-(trifluoromethyl)phenyl]-1H,2H,3H,4H,5H,6H,7H,8H-pyrido[4,3-d]pyrimidin-4-yl}-3-(1,3-oxazol-5-yl)benzonitrile] | < 1 | 1.5
CN1C(=O)N(c2cccc(C(F)(F)F)c2)C2=C(C(=O)NCC2)C1c1ccc(C#N)cc1-c1cnn(C)c1 (racemic) [Example 26, 3-(1-Methyl-1H-pyrazol-4-yl)-4-{3-methyl-2,5-dioxo-1-[3-(trifluoromethyl)phenyl]-1H,2H,3H,4H,5H,6H,7H,8H-pyrido[4,3-d]pyrimidin-4-yl}benzonitrile] | < 1 | 1.4
CN1C(=O)N(c2cccc(C(F)(F)F)c2)C2=C(C(=O)NCC2)C1c1ccc(C#N)cc1CO (racemic) [Example 29, 3-(Hydroxymethyl)-4-{3-methyl-2,5-dioxo-1-[3-(trifluoromethyl)phenyl]-1H,2H,3H,4H,5H,6H,7H,8H-pyrido[4,3-d]pyrimidin-4-yl}benzonitrile] | < 1 | < 1
N#Cc1ccc([C@@H]2NC(=O)N(c3cccc(C(F)(F)F)c3)C3=C2C(=O)NCC3)cc1 [Example 1B, (S)-4-(2,5-Dioxo-1-(3-(trifluoromethyl)phenyl)-1,2,3,4,5,6,7,8-octahydropyrido[4,3-d]-pyrimidin-4-yl)benzonitrile] | 940 | –
N#Cc1ccc([C@@H]2NC(=O)N(c3cccc(C(F)F)c3)C3=C2C(=O)NCC3)cc1 [Example 2B, (S)-4-(1-(3-(Difluoromethyl)phenyl)-2,5-dioxo-1,2,3,4,5,6,7,8-octahydropyrido[4,3-d]-pyrimidin-4-yl)benzonitrile] | > 10000 | –
CC1(C)CC2=C(C(=O)N1)C(c1ccc(C#N)cc1)NC(=O)N2c1cccc(C(F)(F)F)c1 (centres unmarked) [Example 3, 4-(7,7-Dimethyl-2,5-dioxo-1-(3-(trifluoromethyl)phenyl)-1,2,3,4,5,6,7,8-octahydropyrido[4,3-d]pyrimidin-4-yl)benzonitrile] | 9.8 | 13
CN1CCC2=C(C1=O)[C@H](c1ccc(C#N)cc1)NC(=O)N2c1cccc(C(F)(F)F)c1 [Example 4B, (S)-4-(6-Methyl-2,5-dioxo-1-(3-(trifluoromethyl)phenyl)-1,2,3,4,5,6,7,8-octahydropyrido[4,3-d]pyrimidin-4-yl)benzonitrile] | 1900 | –
CN1C(=O)N(c2cccc(C(F)(F)F)c2)C2=C(C(=O)NCC2)C1c1ccc(C#N)cc1 (centres unmarked) [Example 5, 4-(3-Methyl-2,5-dioxo-1-(3-(trifluoromethyl)phenyl)-1,2,3,4,5,6,7,8-octahydropyrido-[4,3-d]pyrimidin-4-yl)benzonitrile] | 1.9 | 1.1
CN1CCC2=C(C1=O)[C@@H](c1ccc(C#N)cc1)N(C)C(=O)N2c1cccc(C(F)(F)F)c1 [Example 7, (R)-4-(3,6-Dimethyl-2,5-dioxo-1-(3-(trifluoromethyl)phenyl)-1,2,3,4,5,6,7,8-octahydropyrido[4,3-d]pyrimidin-4-yl)benzonitrile] | 1.2 | 2
CN1C(=O)N(c2cccc(C(F)F)c2)C2=C(C(=O)NCC2)[C@@H]1c1ccc(C#N)cc1 [Example 8B, (S)-4-(1-(3-(Difluoromethyl)phenyl)-3-methyl-2,5-dioxo-1,2,3,4,5,6,7,8-octahydropyrido[4,3-d]pyrimidin-4-yl)benzonitrile] | 36 | –
N#Cc1ccc(C2C3=C(CCNC3=O)N(c3cccc(C(F)(F)F)c3)C(=O)N2CC(=O)O)cc1 (centres unmarked) [Example 10, 2-(4-(4-Cyanophenyl)-2,5-dioxo-1-(3-(trifluoromethyl)phenyl)-1,2,5,6,7,8-hexahydropyrido[4,3-d]pyrimidin-3(4H)-yl)acetic acid] | 2.7 | 2.4
N#Cc1ccc(C2C3=C(CCNC3=O)N(c3cccc(C(F)(F)F)c3)C(=O)N2CC(N)=O)cc1 (centres unmarked) [Example 11, 2-(4-(4-Cyanophenyl)-2,5-dioxo-1-(3-(trifluoromethyl)phenyl)-1,2,5,6,7,8-hexahydropyrido[4,3-d]pyrimidin-3(4H)-yl)acetamide] | 3 | 2.9

SMILES | IC50 [1] [nM] | IC50 [2] [nM]
CN(C)C(=O)CN1C(=O)N(c2cccc(C(F)(F)F)c2)C2=C(C(=O)NCC2)C1c1ccc(C#N)cc1 (centres unmarked) [Example 12.1] | 1.1 | < 1
CCNC(=O)CN1C(=O)N(c2cccc(C(F)(F)F)c2)C2=C(C(=O)NCC2)C1c1ccc(C#N)cc1 (centres unmarked) [Example 12.2] | 2.4 | 2.5
N#Cc1ccc(C2C3=C(CCNC3=O)N(c3cccc(C(F)(F)F)c3)C(=O)N2CC(=O)NCCO)cc1 (centres unmarked) [Example 12.3] | 2.1 | 3.6
COCCNC(=O)CN1C(=O)N(c2cccc(C(F)(F)F)c2)C2=C(C(=O)NCC2)C1c1ccc(C#N)cc1 (centres unmarked) [Example 12.4] | 2 | 5.1
N#Cc1ccc(C2C3=C(CCNC3=O)N(c3cccc(C(F)(F)F)c3)C(=O)N2CC(=O)N2CC3CC3C2)cc1 (centres unmarked) [Example 12.5] | < 1 | < 1
N#Cc1ccc(C2C3=C(CCNC3=O)N(c3cccc(C(F)(F)F)c3)C(=O)N2CC(=O)N2CCCCC2)cc1 (centres unmarked) [Example 12.6] | < 1 | < 1
N#Cc1ccc(C2C3=C(CCNC3=O)N(c3cccc(C(F)(F)F)c3)C(=O)N2CC(=O)N2CCOCC2)cc1 (centres unmarked) [Example 12.7] | < 1 | < 1
N#Cc1ccc(C2C3=C(CCNC3=O)N(c3cccc(C(F)(F)F)c3)C(=O)N2CC(=O)N2CCC(F)C2)cc1 (centres unmarked) [Example 12.8] | < 1 | 1.1
Cn1ncc2c1CN(C(=O)CN1C(=O)N(c3cccc(C(F)(F)F)c3)C3=C(C(=O)NCC3)C1c1ccc(C#N)cc1)C2 (centres unmarked) [Example 12.9] | < 1 | 1
CNC(=O)CN1C(=O)N(c2cccc(C(F)(F)F)c2)C2=C(C(=O)NCC2)[C@H]1c1ccc(C#N)cc1 [Example 12A, (R)-2-(4-(4-Cyanophenyl)-2,5-dioxo-1-(3-(trifluoromethyl)phenyl)-1,2,5,6,7,8-hexahydropyrido[4,3-d]pyrimidin-3(4H)-yl)-N-methylacetamide] | 1.3 | < 1
CNC(=O)CN1C(=O)N(c2cccc(C(F)(F)F)c2)C2=C(C(=O)NCC2)[C@@H]1c1ccc(C#N)cc1 [Example 12B, (S)-2-(4-(4-Cyanophenyl)-2,5-dioxo-1-(3-(trifluoromethyl)phenyl)-1,2,5,6,7,8-hexahydropyrido[4,3-d]pyrimidin-3(4H)-yl)-N-methylacetamide] | 1200 | –
CC1(C)CC2=C(C(=O)N1)C(c1ccc(C#N)cc1)N(CC(=O)O)C(=O)N2c1cccc(C(F)(F)F)c1 (centres unmarked) [Example 13, 2-(4-(4-cyanophenyl)-7,7-dimethyl-2,5-dioxo-1-(3-(trifluoromethyl)phenyl)-1,2,5,6,7,8-hexahydropyrido[4,3-d]pyrimidin-3(4H)-yl)acetic acid] | 4.3 | 2.2
CN1CCC2=C(C1=O)C(c1ccc(C#N)cc1)N(CC(N)=O)C(=O)N2c1cccc(C(F)(F)F)c1 (centres unmarked) [Example 14, 2-(4-(4-Cyanophenyl)-6-methyl-2,5-dioxo-1-(3-(trifluoromethyl)phenyl)-1,2,5,6,7,8-hexahydropyrido[4,3-d]pyrimidin-3(4H)-yl)acetamide] | 3 | 14
CN1C(=O)N(c2cccc(C(F)(F)F)c2)C2=C(C(=O)NCC2)[C@@H]1c1ccc(C#N)cc1-c1cnco1 [Example 30B, 4-[(4S)-3-Methyl-2,5-dioxo-1-[3-(trifluoromethyl)phenyl]-1H,2H,3H,4H,5H,6H,7H,8H-pyrido[4,3-d]pyrimidin-4-yl]-3-(1,3-oxazol-5-yl)benzonitrile] | 12 | –
CN1C(=O)N(c2cccc(C(F)(F)F)c2)C2=C(C(=O)NCC2)[C@@H]1c1ccc(C#N)cc1-c1cnn(C)c1 [Example 31B, 3-(1-Methyl-1H-pyrazol-4-yl)-4-[(4S)-3-methyl-2,5-dioxo-1-[3-(trifluoromethyl)-phenyl]-1H,2H,3H,4H,5H,6H,7H,8H-pyrido[4,3-d]pyrimidin-4-yl]benzonitrile] | 17 | –
CN1C(=O)N(c2cccc(C(F)(F)F)c2)C2=C(C(=O)NCC2)[C@@H]1c1ccc(C#N)cc1CO [Example 32B, 3-(Hydroxymethyl)-4-[(4S)-3-methyl-2,5-dioxo-1-[3-(trifluoromethyl)phenyl]-1H,2H,3H,4H,5H,6H,7H,8H-pyrido[4,3-d]pyrimidin-4-yl]benzonitrile] | 39 | –
